Series [1] concerns T cells in FolR1 positive tumor digests or malignant effusions. As to the kind of experiment: Ex vivo treatment of tumor samples with FolR1-TCB (T cell activation and effector function). The format is cell-based, human. Particulars: 24 h. As to the method: FolR1 positive tumor digests or malignant effusions were thawed, washed and plated in 96-well flat bottom cell culture plates (BD Falcon) with a density of […] cells/200 μl/well in complete medium (DMEM+Sodium Pyruvate (1 mM)+MEM non essential AA (1×)+L-Glutamin (2 mM)+Penicillin/Streptomycin ([…])+2-Mercaptoethanol (50 nM)+Ciproxin (1 mg/ml)+10% human Serum). The samples were cultured in the presence or absence of FolR1-TCB or DP47 TCB at a concentration of 2 nM for 24 h. Activation of CD8^+ and CD4^+ T cells (CD45^+CD3^+) upon FolR1-TCB treatment was determined by multicolor flow cytometry by measuring the expression of the cell surface markers CD25, CD69, CD137, ICOS, PD-1 and Tim-3. Furthermore the expression of granzyme B and IFN-γ was determined by intracellular staining. […]
We analyzed whether the expression of inhibitory receptors could be correlated with a diminished T-cell functionality upon FolR1-TCB treatment.

Series [2] relates to SKOV3 cells. As to the kind of experiment: T cell mediated killing (LDH release). Particulars: SKOV3 and HT-29 cells, used concentrations. The format is cell-based, human. As to the method:
FIGS. 7A-L depict graphs summarizing T cell mediated killing of HT-29 and SKOV3 cells. FolR1 TCBs were used to test T cell mediated killing of HT-29 and SKOV3 tumor cells and upregulation of activation marker on T cells upon killing. […] DP47 TCB was included as negative control. After 48 h incubation upregulation of the activation marker CD25 and CD69 on CD8 T cells and CD4 T cells upon killing of SKOV3 (FIGS. 7E-H) or HT-29 (FIG. 7I-L) tumor cells was assessed by flow cytometry.
Overall killing of SKOV3 cells was higher compared to HT-29 which reflects the higher expression levels of FolR1 on SKOV3 cells (FIGS. 7A-D). In line with this, a strong upregulation of the activation marker CD25 and CD69 on CD4^+ T cells and CD8^+ T cells was detected. Activation of T cells was very similar in the presence of SKOV3 cells and HT-29 cells.

Series [3] has as its target T1, FolR1 on Hela, Skov3, OVCAR5, HT29, MKN45 tumor cells (Homo sapiens, UniProt P15328).
T1 construct: endogenous in cells; host or cells: tumour cell line panel (HeLa, SKOV3, OVCAR5, HT-29; MKN-45 as FolR1-negative line)
In words: Binding to tumor cells with different FolR1 expression levels (flow cytometry). The source says: FIGS. 6A-E depict graphs summarizing binding of FolR1 IgGs to cells with different FolR1 expression levels. […] DP47 IgG was included as isotype control and MKN-45 were included as FolR1 negative cell line.
The FolR1 TCBs were used to determine T cell mediated killing of tumor cells expressing FoLR1. A panel of potential target cell lines was used to determine FoLR1 binding sites by Qifikit analysis.
The used panel of tumor cells contains FolR1 high, intermediate and low expressing tumor cells and a FolR1 negative cell line.
The amount of bound construct is proportional to the FolR1 expression level and there is still good binding of the constructs to the FolR1 low cell line HT-29 detectable. […] DP47 TCB is an untargeted TCB and was prepared as described in WO2014/131712.

Series [4] has as its system SKOV3 cells. In words: Killing assay with tumor samples and CFSE-labelled Skov3 cells. The format is cell-based. Here is the method: To determine the FolR1-TCB induced tumor cell killing, 3×10^4 CFSE-labelled Skov3 cells were cocultured with tumor samples in the presence or absence of FolR1-TCB at a concentration of 2 nM for 24 h in 96-well flat bottom cell culture plates. The E:T ratio (E: effector CD45+CD3+ cells; T: target FolR1^+ cells from tumor and added Skov3 cells) was adjusted to 1:1 in each well and the cell number of the added tumor samples was calculated for each sample according to prior characterization by flow cytometry. Cell death of Skov3 cells was determined by flow cytometry by measuring activated caspase 3 and the live/dead marker Live/Dead-near-IR. The assay was performed in triplicates. The FolR1-TCB mediated killing was calculated according to the following equation: % of specific killing=100−[(% of Skov3 live cells in FolR1-TCB treated sample/% of Skov3 live cells in untreated sample)×100].
To compare the FolR1-TCB-induced killing capacity of T-cells between tumor samples, and to exclude additional factors suppressing T-cell functionality, such as expression of PD-L1 on the tumor cells, we exogenously added CFSE-labeled FolR1^+ Skov3 cells to the tumor digests and adjusted the E:T ratio to 1:1, essentially as described above. We then measured the FolR1-TCB-induced killing of CFSE-labeled Skov3 cells, which allowed us to also include FolR1^− tumor samples into the analysis. […]

The subject of series [5] is PBMCs co-cultured with Skov3. In words: Activation of T-cells from healthy donors by FolR1-TCB (PBMC co-cultured with Skov3). The format is cell-based, human. Particulars: 0.6 pM to 2 nM, 24 h. Here is the method: FIGS. 40A-C show activation of CD8^+ T-cells upon exposure to increasing concentrations of FolR1-TCB. PBMCs were co-cultured with Skov3 cells for 24 h in the presence or absence of FolR1-TCB or the unspecific control DP-47-TCB. […] Shaded histogram: isotype control; open histogram: anti-FolR1-antibody. FIG. 40B: The expression of the activation markers CD25, CD137, and ICOS on CD8^+ T-cells was determined by flow cytometry. FIG. 40C: IFN-v.
To assess the effect of FolR1-TCB on T-cell activation peripheral blood mononuclear cells (PBMCs) from healthy donors were co-cultured with the FolR1^+ ovarian cancer cell line Skov3 (FIG. 40A). […] In addition, T-cells secreted IL-2, IFN-γ, and TNF.

Series [6] concerns T cells in EpCAM positive tumor digests or malignant effusions. As to the kind of experiment: Ex vivo treatment of tumor samples with catumaxomab. The format is cell-based, human. To be noted: 4 NSCLC tumor digests, 10 ng/ml, 24 h. Here is the method: The trifunctional TCB catumaxomab (Removab®) was obtained from Fresenius. The experimental conditions were similar as indicated above for FolR1-TCB. Briefly, EpCAM positive tumor digests or malignant effusions were cultured in the presence or absence of catumaxomab at a concentration of 10 ng/ml for 24 h. Analysis of CD8^+ and CD4^+ positive T cells (CD45+CD3+) was performed as described above.
To determine to which extent catumaxomab induces T cell activation and to confirm the findings described above using a second, independent T cell bispecific molecule, 4 tumor digests from patients with NSCLC were exposed to catumaxomab, a trifunctional bispecific antibody recognizing CD3 on T cells and EpCAM on tumor cells. Then, T cells were characterized by flow cytometry for expression of activation markers and T cell effector functions (FIG. 17A-D). […] Accordingly, the baseline expression of inhibitory receptors differed between the patients (FIG. 17E-H).

A further series has as its system T cells in tumor digests. In words: Polyclonal stimulation with anti-CD3/CD28 antibodies and PD-1 blockade. The format is cell-based, human. Particulars: 10 μg/ml, 24 hrs.
The test system of series [7] is T cells in FolR1+ tumor digests or malignant effusions. As to the kind of experiment: FolR1-TCB with PD-1 blockade in tumor digests or malignant effusions (cytokine secretion). The format is cell-based, human. Particulars: combined with FolR1-TCB. Here is the method: FIG. 38A-D: FolR1^+ tumor digests or malignant effusions were cultured for 24 h with FolR1-TCB in the presence or absence of a PD-1 blocking antibody. […] The increase in cytokine secretion upon combined FolR1-TCB and anti-PD-1 treatment compared with FolR1-TCB alone was determined in PD-1^hi scarce and abundant tumors. FIG. 38E: Tumor digests or malignant effusions were co-cultured with exogenously added fluorescently labeled Skov3 cells at an E:T ratio of 1:1 for 24 h in the presence or absence of a PD-1 blocking antibody and FolR1-TCB. The increase in specific killing by the anti-PD-1 antibody was compared in PD-1^hi scarce and abundant tumors. p-values were calculated using the unpaired Mann-Whitney test.
As the level of PD-1 expression on TILs correlates with the efficacy of FolR1-TCB, we analyzed whether blockade of the PD-1/PD-L1 axis in combination with FolR1-TCB treatment might be able to restore T-cell function.

Series [8] deals with CD4+ and CD8+ T cells in whole blood. In words: T cell activation in whole blood. The format is cell-based, human. To be noted: 24 h after addition. The source says:
FIGS. 9A-D depict graphs summarizing activation marker upregulation in whole blood.
DP47 TCB was included as negative control.

T1 sequence (P15328 25-257): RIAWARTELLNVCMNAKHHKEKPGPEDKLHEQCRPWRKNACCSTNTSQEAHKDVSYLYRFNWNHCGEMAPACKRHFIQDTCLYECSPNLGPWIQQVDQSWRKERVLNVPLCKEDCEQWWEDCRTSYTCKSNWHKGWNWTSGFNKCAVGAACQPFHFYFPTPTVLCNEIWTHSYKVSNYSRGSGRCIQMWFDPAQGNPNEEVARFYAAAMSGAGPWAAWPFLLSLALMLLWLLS

Regarding “DP47 TCB: untargeted TCB, negative control, prepared as described in WO2014/131712”, the T cell activation result in [1] is on record as “did not induce any T cell activation”. The “induction of tumor cell killing” value in the series with SKOV3 cells [2] is on record as “does not induce any killing”. Moreover, the “binding to panel of tumor cell lines” value in [3] was “no binding”. Moreover, the tumor cell killing result with SKOV3 cells [4] (E:T 1:1, 24 h) is listed as “did not induce any tumor cell killing”. The “T-cell activation (CD25, CD137, ICOS)” value in [5] is on record as “did not induce any T-cell activation”.
With catumaxomab, the “catumaxomab induced T cell activation” value in series [6] is given as “striking heterogeneity”.
On to nivolumab: PD-1 blocking antibody, for which, in the series with T cells in tumor digests, the “restoration of T cell effector function (IL-2, IFN-γ, TNF-α)” value is “only in some patients”. In addition, the “secretion of IFN-γ, TNF, IL-2 and perforin upon PD-1 blockade” value in series [7] (PD-1hi abundant tumors) was “failed to elicit any response”; in [7] (PD-1hi scarce tumors), “could be increased only in some of the PD-hi scarce tumors”. Besides, the “cytotoxic tumor cell killing upon additional PD-1 blockade” value with SKOV3 cells [4] (combined with FolR1-TCB, PD-1hi scarce and abundant tumors) is “could neither be improved”.
For the substance “Mov19 TCB: reference FolR1/CD3 T-cell bispecific with Mov19 binder [reference compound]”, the “upregulation of CD25 and CD69 on CD4+ and CD8+ T cells in whole blood” value in series [8] is “No activation of T cells”.

(Values after patent publication US11613587B2, “Combination therapy of T cell activating bispecific antigen binding molecules and PD-1 axis binding antagonists” (Hoffmann-La Roche Inc., priority 2014, dated 2023).)
